# ChEMBL document CHEMBL2074266, “Molecular cloning and characterization of multispecific organic anion transporter 4 expressed in the placenta” (J Biol Chem, 2000)
# T1: Solute carrier family 22 member 11 (Homo sapiens, UniProt Q9NSA0)
# T1 sequence (Q9NSA0 whole entry): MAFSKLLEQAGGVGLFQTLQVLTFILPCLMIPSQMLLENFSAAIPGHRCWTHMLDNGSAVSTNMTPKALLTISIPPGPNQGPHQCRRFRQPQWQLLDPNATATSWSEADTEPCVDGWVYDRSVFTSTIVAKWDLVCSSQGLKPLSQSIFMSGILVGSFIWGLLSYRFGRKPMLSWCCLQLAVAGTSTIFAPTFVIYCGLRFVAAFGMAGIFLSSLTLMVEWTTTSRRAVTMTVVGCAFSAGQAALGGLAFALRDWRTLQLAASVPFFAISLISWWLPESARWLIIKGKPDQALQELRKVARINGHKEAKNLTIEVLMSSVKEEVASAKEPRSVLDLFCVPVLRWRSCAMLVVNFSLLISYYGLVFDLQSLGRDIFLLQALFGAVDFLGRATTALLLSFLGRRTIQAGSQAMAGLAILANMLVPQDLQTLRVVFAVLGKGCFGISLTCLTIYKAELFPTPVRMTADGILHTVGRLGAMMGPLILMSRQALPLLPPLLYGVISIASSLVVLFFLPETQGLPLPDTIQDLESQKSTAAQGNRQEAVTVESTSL
# Experiments:
# [1] = molecular target: T1, Solute carrier family 22 member 11; experiment: TP_TRANSPORTER: inhibition of E1S uptake (E1S: 0.05 uM, beta-estradiol sulfate: 500 uM) in Xenopus laevis oocytes; assay type: functional, cell-based; conditions: oocyte
# [2] = molecular target: T1, Solute carrier family 22 member 11; experiment: TP_TRANSPORTER: inhibition of E1S uptake (E1S: 0.05 uM, Estradiol-3-glucuronide: 500 uM) in Xenopus laevis oocytes; assay type: functional, cell-based; conditions: oocyte
# [3] = molecular target: T1, Solute carrier family 22 member 11; experiment: TP_TRANSPORTER: inhibition of E1S uptake (E1S: 0.05 uM, alpha-naphthyl beta-D-glucuronide: 500 uM) in Xenopus laevis oocytes; assay type: functional, cell-based; conditions: oocyte
# [4] = molecular target: T1, Solute carrier family 22 member 11; experiment: TP_TRANSPORTER: inhibition of E1S uptake (E1S: 0.05 uM, 4-methylumbelliferyl sulfate: 500 uM) in Xenopus laevis oocytes; assay type: functional, cell-based; conditions: oocyte
# [5] = molecular target: T1, Solute carrier family 22 member 11; experiment: TP_TRANSPORTER: inhibition of E1S uptake (E1S: 0.05 uM, 4-methylumbeliferone glucuronide: 500 uM) in Xenopus laevis oocytes; assay type: functional, cell-based; conditions: oocyte
# [6] = molecular target: T1, Solute carrier family 22 member 11; experiment: TP_TRANSPORTER: inhibition of E1S uptake (E1S: 0.05 uM, p-Nitrophenyl glucuronide: 500 uM) in Xenopus laevis oocytes; assay type: functional, cell-based; conditions: oocyte
# [7] = molecular target: T1, Solute carrier family 22 member 11; experiment: (§1) TP_TRANSPORTER: uptake in Xenopus laevis oocytes; assay type: functional, cell-based; conditions: oocyte
# [8] = molecular target: T1, Solute carrier family 22 member 11; experiment: TP_TRANSPORTER: inhibition of E1S uptake (E1S: 0.05 uM, Acetaminophen glucuronide: 500 uM) in Xenopus laevis oocytes; assay type: functional, cell-based; conditions: oocyte
# [9] = molecular target: T1, Solute carrier family 22 member 11; experiment: TP_TRANSPORTER: inhibition of E1S uptake (E1S: 0.05 uM, Bumetanide: 500 uM) in Xenopus laevis oocytes; assay type: functional, cell-based; conditions: oocyte
# [10] = molecular target: T1, Solute carrier family 22 member 11; experiment: TP_TRANSPORTER: inhibition of E1S uptake (E1S: 0.05 uM, Corticosterone: 500 uM) in Xenopus laevis oocytes; assay type: functional, cell-based; conditions: oocyte
# [11] = molecular target: T1, Solute carrier family 22 member 11; experiment: TP_TRANSPORTER: inhibition of E1S uptake (E1S: 0.05 uM, Diclofenac: 500 uM) in Xenopus laevis oocytes; assay type: functional, cell-based; conditions: oocyte
# [12] = molecular target: T1, Solute carrier family 22 member 11; experiment: TP_TRANSPORTER: inhibition of E1S uptake (E1S: 0.05 uM, beta-Estradiol: 500 uM) in Xenopus laevis oocytes; assay type: functional, cell-based; conditions: oocyte
# [13] = molecular target: T1, Solute carrier family 22 member 11; experiment: TP_TRANSPORTER: inhibition of E1S uptake (E1S: 0.05 uM, Furosemide: 500 uM) in Xenopus laevis oocytes; assay type: functional, cell-based; conditions: oocyte
# [14] = molecular target: T1, Solute carrier family 22 member 11; experiment: TP_TRANSPORTER: inhibition of E1S uptake (E1S: 0.05 uM, Glutarate: 500 uM) in Xenopus laevis oocytes; assay type: functional, cell-based; conditions: oocyte
# [15] = molecular target: T1, Solute carrier family 22 member 11; experiment: TP_TRANSPORTER: inhibition of E1S uptake (E1S: 0.05 uM, Ibuprofen: 500 uM) in Xenopus laevis oocytes; assay type: functional, cell-based; conditions: oocyte
# [16] = molecular target: T1, Solute carrier family 22 member 11; experiment: TP_TRANSPORTER: inhibition of E1S uptake (E1S: 0.05 uM, Indomethacin: 500 uM) in Xenopus laevis oocytes; assay type: functional, cell-based; conditions: oocyte
# [17] = molecular target: T1, Solute carrier family 22 member 11; experiment: TP_TRANSPORTER: inhibition of E1S uptake (E1S: 0.05 uM, DHEAS: 500 uM) in Xenopus laevis oocytes; assay type: functional, cell-based; conditions: oocyte
# [18] = molecular target: T1, Solute carrier family 22 member 11; experiment: TP_TRANSPORTER: inhibition of E1S uptake (E1S: 0.05 uM, BSP: 100 uM) in Xenopus laevis oocytes; assay type: functional, cell-based; conditions: oocyte
# [19] = substrate: C[C@]12CC[C@@H]3c4ccc(OS(=O)(=O)O)cc4CC[C@H]3[C@@H]1CCC2=O; experiment: as §1; assay type: functional, cell-based, Oocyte
# [20] = substrate: [H][C@@]12CC=C3C[C@@H](OS(=O)(=O)O)CC[C@]3(C)[C@@]1([H])CC[C@]1(C)C(=O)CC[C@@]21[H]; experiment: as §1; assay type: functional, cell-based, Oocyte
molecule,measurement,setting,value
C[C@]12CC[C@@H]3c4ccc(OS(=O)(=O)O)cc4CC[C@H]3[C@@H]1CC[C@@H]2O,Activity,[1],inhibitor [(at a rough estimate) 25 % of control]
C[C@]12CC[C@@H]3c4ccc(O[C@@H]5O[C@H](C(=O)O)[C@@H](O)[C@H](O)[C@H]5O)cc4CC[C@H]3[C@@H]1CC[C@@H]2O,Activity,[2],is not an inhibitor [-]
O=C(O)[C@H]1O[C@@H](Oc2cccc3ccccc23)[C@H](O)[C@@H](O)[C@@H]1O,Activity,[3],is not an inhibitor [-]
Cc1cc(=O)oc2cc(OS(=O)(=O)O)ccc12,Activity,[4],inhibitor [(at a rough estimate) 40 % of control]
O=C(O)[C@H]1O[C@@H](OCc2cc(=O)oc3cc(O)ccc23)[C@H](O)[C@@H](O)[C@@H]1O,Activity,[5],is not an inhibitor [-]
O=C(O)[C@H]1O[C@@H](Oc2ccc([N+](=O)[O-])cc2)[C@H](O)[C@@H](O)[C@@H]1O,Activity,[6],is not an inhibitor [-]
C[C@@H]1Cc2c(Cl)cc(C(=O)N[C@@H](Cc3ccccc3)C(=O)O)c(O)c2C(=O)O1 [3R14S-OCHRATOXIN A],Activity,[7],substrate [+]
CC(=O)Nc1ccc(O[C@@H]2O[C@H](C(=O)O)[C@@H](O)[C@H](O)[C@H]2O)cc1 [ACETAMINOPHEN GLUCURONIDE],Activity,[8],is not an inhibitor [-]
Nc1ccc(C(=O)NCC(=O)O)cc1 [AMINOHIPPURIC ACID],Activity,[7],substrate [+]
CCCCNc1cc(C(=O)O)cc(S(N)(=O)=O)c1Oc1ccccc1 [BUMETANIDE],Activity,[9],inhibitor [(at a rough estimate) 15 % of control]
C[C@]12C[C@H](O)[C@H]3[C@@H](CCC4=CC(=O)CC[C@@]43C)[C@@H]1CC[C@@H]2C(=O)CO [CORTICOSTERONE],Activity,[10],inhibitor [(at a rough estimate) 30 % of control]
O=C(O)Cc1ccccc1Nc1c(Cl)cccc1Cl [DICLOFENAC],Activity,[11],inhibitor [(at a rough estimate) 5 % of control]
C[C@]12CC[C@@H]3c4ccc(O)cc4CC[C@H]3[C@@H]1CC[C@@H]2O [ESTRADIOL],Activity,[12],is not an inhibitor [-]
NS(=O)(=O)c1cc(C(=O)O)c(NCc2ccco2)cc1Cl [FUROSEMIDE],Activity,[13],inhibitor [(at a rough estimate) 5 % of control]
O=C(O)CCCC(=O)O [GLUTARATE],Activity,[14],is not an inhibitor [-]
CC(C)Cc1ccc(C(C)C(=O)O)cc1 (stereo unspecified) [IBUPROFEN],Activity,[15],inhibitor [(at a rough estimate) 10 % of control]
COc1ccc2c(c1)c(CC(=O)O)c(C)n2C(=O)c1ccc(Cl)cc1 [INDOMETHACIN],Activity,[16],inhibitor [(at a rough estimate) 5 % of control]
C[C@]12CC[C@H](OS(=O)(=O)O)CC1=CC[C@@H]1[C@@H]2CC[C@]2(C)C(=O)CC[C@@H]12 [PRASTERONE SULFURIC ACID],Activity,[17],inhibitor [(at a rough estimate) 15 % of control]
O=C1OC(c2ccc(O)c(S(=O)(=O)[O-])c2)(c2ccc(O)c(S(=O)(=O)[O-])c2)c2c(Br)c(Br)c(Br)c(Br)c21.[Na+].[Na+] [SULFOBROMOPHTHALEIN SODIUM],Activity,[18],inhibitor [(at a rough estimate) <5 % of control]
Solute carrier family 22 member 11 (Homo sapiens) (protein) MAFSKLLEQAGGVGLFQTLQVLTFILPCLMIPSQMLLENFSAAIPGHRCWTHMLDNGSAVSTNMTPKALLTISIPPGPNQGPHQCRRFRQPQWQLLDPNATATSWSEADTEPCVDGWVYDRSVFTSTIVAKWDLVCSSQGLKPLSQSIFMSGILVGSFIWGLLSYRFGRKPMLSWCCLQLAVAGTSTIFAPTFVIYCGLRFVAAFGMAGIFLSSLTLMVEWTTTSRRAVTMTVVGCAFSAGQAALGGLAFALRDWRTLQLAASVPFFAISLISWWLPESARWLIIKGKPDQALQELRKVARINGHKEAKNLTIEVLMSSVKEEVASAKEPRSVLDLFCVPVLRWRSCAMLVVNFSLLISYYGLVFDLQSLGRDIFLLQALFGAVDFLGRATTALLLSFLGRRTIQAGSQAMAGLAILANMLVPQDLQTLRVVFAVLGKGCFGISLTCLTIYKAELFPTPVRMTADGILHTVGRLGAMMGPLILMSRQALPLLPPLLYGVISIASSLVVLFFLPETQGLPLPDTIQDLESQKSTAAQGNRQEAVTVESTSL,Km,[19],1.01 µM
same,Km,[20],0.63 µM
